# Experimental data reported in ChEMBL document CHEMBL5512659, “Structure optimizing of flavonoids against both MRSA and VRE” (Eur J Med Chem, 2024).
# Activity calls are given as the source filed them. The calls are words filed in the database; no cut-off is given here.
# Tests used:
# Staphylococcus aureus [1] = assay: Antibacterial activity against methicillin resistant Staphylococcus aureus clinical isolate 003 in presence of 2.5 mM/L Ca2+ (reference value: 0.5 ug/ml); format: functional
# Staphylococcus aureus [2] = assay: Antibacterial activity against methicillin resistant Staphylococcus aureus clinical isolate 003 in presence of 140 mM/L Na+ (reference value: 0.5 ug/ml); format: functional
# Staphylococcus aureus [3] = assay: Antibacterial activity against methicillin resistant Staphylococcus aureus clinical isolate 003 in presence of 4.5 mM/L K+ (reference value: 0.5 ug/ml); format: functional
# Staphylococcus aureus [4] = assay: Antibacterial activity against methicillin resistant Staphylococcus aureus clinical isolate 003 in presence of 2.5 mM/L Ca2+ (reference value: 1 ug/ml); format: functional
# Staphylococcus aureus [5] = assay: Antibacterial activity against methicillin resistant Staphylococcus aureus clinical isolate 003 in presence of 140 mM/L Na+ (reference value: 1 ug/ml); format: functional
# Enterococcus faecalis [6] = assay: Antibacterial activity against multidrug resistant Enterococcus faecalis ATCC 51299 in presence of 1 mM/L Mg2+ (reference value: 32 ug/ml); format: functional
# Staphylococcus aureus [7] = assay: Antibacterial activity against methicillin resistant Staphylococcus aureus clinical isolate 003 in presence of 4.5 mM/L K+ (reference value: 1 ug/ml); format: functional
# Enterococcus faecalis [8] = assay: Antibacterial activity against multidrug resistant Enterococcus faecalis ATCC 51299 in presence of 4.5 mM/L K+ (reference value: 32 ug/ml); format: functional
# Enterococcus faecalis [9] = assay: Antibacterial activity against multidrug resistant Enterococcus faecalis ATCC 51299 in presence of 140 mM/L Na+ (reference value: 32 ug/ml); format: functional
# Staphylococcus aureus [10] = assay: Antibacterial activity against methicillin resistant Staphylococcus aureus clinical isolate 003 in presence of 2.5 mM/L Ca2+ (reference value: 0.25 ug/ml); format: functional
# Staphylococcus aureus [11] = assay: Additive antibacterial activity against methicillin resistant Staphylococcus aureus clinical isolate 003 assessed as fractional inhibitory concentration in presence of adriamycin hydrochloride; format: functional
# Staphylococcus aureus [12] = assay: Synergistic antibacterial activity against methicillin resistant Staphylococcus aureus clinical isolate 003 assessed as fractional inhibitory concentration in presence of lincomycin hydrochloride; format: functional
# Staphylococcus aureus [13] = assay: Additive antibacterial activity against methicillin resistant Staphylococcus aureus clinical isolate 003 assessed as fractional inhibitory concentration in presence of azithromycin; format: functional
# Staphylococcus aureus [14] = assay: Antibacterial activity against methicillin resistant Staphylococcus aureus clinical isolate 003 infected in cyclophosphamide immunosuppressed mouse model of skin wound infection assessed as reduction in inflammatory cells in skin at 1.25 to 5 mg/kg administered for 7 days and measured on day 8 by H and E staining based analysis; format: functional, organism-based; conditions: dose 1.25-5 mg/kg, time 8.0 day
# Enterococcus faecalis [15] = assay: Antibacterial activity against multidrug resistant Enterococcus faecalis ATCC 51299 infected in cyclophosphamide immunosuppressed mouse model of abdominal infection assessed as eradication of bacterial colonies in kidney at 1.25 to 5 mg/kg measured after 60 hrs relative to control; format: functional; conditions: dose 1.25-5 mg/kg
# [16] = Toxicity in Galleria mellonella assessed as survival rate at 1.25 to 10 mg/kg observed after 7 days; format: organism-based; conditions: in vivo, dose 1.25-10 mg/kg, time 7 day
# Staphylococcus aureus [17] = assay: (§1) Antibacterial activity against methicillin resistant Staphylococcus aureus clinical isolate 003 infected in cyclophosphamide immunosuppressed mouse model of skin wound infection assessed as reduction in bacterial load in wound at 1.25 mg/kg administered for 7 days and measured on day 8 (reference value: 1.6 x 10^8 CFU); format: functional; conditions: time 8 day
# Enterococcus faecalis [18] = assay: Synergistic antibacterial activity against multidrug resistant Enterococcus faecalis ATCC 51299 assessed as fractional inhibitory concentration in presence of tetracycline; format: functional
# Staphylococcus aureus [19] = assay: as §1, with “2.5” for “1.25”; format: functional; conditions: time 8 day
# Staphylococcus aureus [20] = assay: Antibacterial activity against methicillin resistant Staphylococcus aureus clinical isolate 003 in presence of 4.5 mM/L K+ (reference value: 0.25 ug/ml); format: functional
# Staphylococcus aureus [21] = assay: Synergistic antibacterial activity against methicillin resistant Staphylococcus aureus clinical isolate 003 assessed as fractional inhibitory concentration in presence of norfloxacin; format: functional
# Enterococcus faecalis [22] = assay: Synergistic antibacterial activity against multidrug resistant Enterococcus faecalis ATCC 51299 assessed as fractional inhibitory concentration in presence of vancomycin; format: functional
# Staphylococcus aureus [23] = assay: Antibacterial activity against methicillin resistant Staphylococcus aureus clinical isolate 003 in presence of 140 mM/L Na+ (reference value: 0.25 ug/ml); format: functional
# Staphylococcus aureus [24] = assay: as §1, with “5” for “1.25”; format: functional; conditions: time 8 day
# Staphylococcus aureus [25] = assay: Additive antibacterial activity against methicillin resistant Staphylococcus aureus clinical isolate 003 assessed as fractional inhibitory concentration in presence of ampicillin; format: functional
# Staphylococcus aureus [26] = assay: Synergistic antibacterial activity against methicillin resistant Staphylococcus aureus clinical isolate 003 assessed as fractional inhibitory concentration in presence of tetracycline; format: functional
# Staphylococcus aureus [27] = assay: Additive antibacterial activity against methicillin resistant Staphylococcus aureus clinical isolate 003 assessed as fractional inhibitory concentration in presence of vancomycin; format: functional
# Enterococcus faecalis [28] = assay: Synergistic antibacterial activity against multidrug resistant Enterococcus faecalis ATCC 51299 assessed as fractional inhibitory concentration in presence of azithromycin; format: functional
# Enterococcus faecalis [29] = assay: Antibacterial activity against multidrug resistant Enterococcus faecalis ATCC 51299 infected in cyclophosphamide immunosuppressed mouse model of abdominal infection assessed as eradication of bacterial colonies in ascites at 1.25 to 5 mg/kg measured after 60 hrs relative to control; format: functional; conditions: dose 1.25-5 mg/kg
smiles,measurement,setting,value
CCCCCCc1c(-c2ccc(OCCCCN(C)C)cc2OCCCCN(C)C)oc2cc(OC)cc(O)c2c1=O,MIC,Staphylococcus aureus [1],1 µg/mL
same,MIC,Staphylococcus aureus [2],1 µg/mL
same,MIC,Staphylococcus aureus [3],0.5 µg/mL
CCCCCCc1c(-c2ccc(OCC(=O)CN[C@H](CCCNC(=N)N)C(=O)OC)cc2OCC(=O)CN[C@H](CCCNC(=N)N)C(=O)OC)oc2cc(OC)cc(O)c2c1=O,MIC,Staphylococcus aureus [4],1 µg/mL
same,MIC,Staphylococcus aureus [5],1 µg/mL
same,MIC,Enterococcus faecalis [6],32 µg/mL
same,MIC,Staphylococcus aureus [7],2 µg/mL
same,MIC,Enterococcus faecalis [8],32 µg/mL
same,MIC,Enterococcus faecalis [9],32 µg/mL
CCCCCCc1c(-c2ccc(OCCCCNCCCN)cc2OCCCCNCCCN)oc2cc(OC)cc(O)c2c1=O,MIC,Staphylococcus aureus [10],0.25 µg/mL
same,fractional inhibitory concentration index (FICI),Staphylococcus aureus [11],0.75
same,fractional inhibitory concentration index (FICI),Staphylococcus aureus [12],0.313
same,fractional inhibitory concentration index (FICI),Staphylococcus aureus [13],0.75
same,Activity,Staphylococcus aureus [14],Active
same,Activity,Enterococcus faecalis [15],99.2%
same,survival at 168 h,[16],100%
same,Activity,Staphylococcus aureus [17],9.2 10^6CFU
same,fractional inhibitory concentration index (FICI),Enterococcus faecalis [18],0.25
same,Activity,Staphylococcus aureus [19],8 10^6CFU
same,MIC,Staphylococcus aureus [20],0.125 µg/mL
same,fractional inhibitory concentration index (FICI),Staphylococcus aureus [21],0.5
same,fractional inhibitory concentration index (FICI),Enterococcus faecalis [22],0.375
same,MIC,Staphylococcus aureus [23],0.25 µg/mL
same,Activity,Staphylococcus aureus [24],9.4 10^6CFU
same,fractional inhibitory concentration index (FICI),Staphylococcus aureus [25],0.75
same,fractional inhibitory concentration index (FICI),Staphylococcus aureus [26],0.375
same,fractional inhibitory concentration index (FICI),Staphylococcus aureus [27],1
same,fractional inhibitory concentration index (FICI),Enterococcus faecalis [28],0.313
same,Activity,Enterococcus faecalis [29],92.2%
